# Source: patent US20170080128A1, “NOVEL ENDOTRACHEAL TUBE FOR THE REDUCTION OF INTUBATION-RELATED COMPLICATION IN NEONATES AND BABIES” (Brigham Young University, priority 2015, published 2017)
# Test system: tracheal mucosal integrity
# Experiment: Tracheal mucosal integrity of intubated pre-term lambs (histology)
# Format: in vivo
# Text: FIG. 2 compares histological images of tracheal tissue of a pre-term lamb intubated with an ETT not coated with a CSA-containing coating to tracheal tissue of a pre-term lamb intubated with an ETT coated with a CSA-containing coating.
# Pre-term lambs were intubated using ETTs including a coating having CSA-131 and tracheal mucosal integrity of the lambs was compared to the tracheal mucosal integrity of a control group (intubated with uncoated ETTs). […] FIG. 2 illustrates the histological appearance of tracheas of the premature lambs that were intubated for three days. […] An area of denuded epithelium (arrowhead), and accumulation of white blood cells (arrow) are highlighted.
structure (smiles),measurement,setting,value
CCCCCCCCCCCCNCCC[C@@H](C)[C@H]1CC[C@H]2[C@@H]3[C@H](OCCCN)C[C@@H]4C[C@H](OCCCN)CC[C@]4(C)[C@H]3C[C@H](OCCCN)[C@]12C.Cl.Cl.Cl.Cl [CSA-131],"Histological appearance of trachea (FIG. 2, image (b))","ETT coated with a CSA-131 containing coating, intubated for three days",the epithelium is intact and the subjacent connective tissue region is not inflamed
same,Tracheal mucosal integrity compared to control group (uncoated ETTs),ETTs including a coating having CSA-131,markedly improved mucosal integrity
